Here are results for 25 molecules from patent US11524966B1 (Valo Early Discovery, Inc., priority 2017, dated 2022).

This test deals with T1, USP28 (USP28-5(1-1077)-TEV-6*His; LifeSensors) (Homo sapiens, UniProt Q96RU2).
T1 construct: construct USP28 (USP28-5(1-1077)-TEV-6*His; LifeSensors); TEV cleavage site (C); 6xHis (C); purchased LifeSensors
T1 sequence (Q96RU2 1-1077): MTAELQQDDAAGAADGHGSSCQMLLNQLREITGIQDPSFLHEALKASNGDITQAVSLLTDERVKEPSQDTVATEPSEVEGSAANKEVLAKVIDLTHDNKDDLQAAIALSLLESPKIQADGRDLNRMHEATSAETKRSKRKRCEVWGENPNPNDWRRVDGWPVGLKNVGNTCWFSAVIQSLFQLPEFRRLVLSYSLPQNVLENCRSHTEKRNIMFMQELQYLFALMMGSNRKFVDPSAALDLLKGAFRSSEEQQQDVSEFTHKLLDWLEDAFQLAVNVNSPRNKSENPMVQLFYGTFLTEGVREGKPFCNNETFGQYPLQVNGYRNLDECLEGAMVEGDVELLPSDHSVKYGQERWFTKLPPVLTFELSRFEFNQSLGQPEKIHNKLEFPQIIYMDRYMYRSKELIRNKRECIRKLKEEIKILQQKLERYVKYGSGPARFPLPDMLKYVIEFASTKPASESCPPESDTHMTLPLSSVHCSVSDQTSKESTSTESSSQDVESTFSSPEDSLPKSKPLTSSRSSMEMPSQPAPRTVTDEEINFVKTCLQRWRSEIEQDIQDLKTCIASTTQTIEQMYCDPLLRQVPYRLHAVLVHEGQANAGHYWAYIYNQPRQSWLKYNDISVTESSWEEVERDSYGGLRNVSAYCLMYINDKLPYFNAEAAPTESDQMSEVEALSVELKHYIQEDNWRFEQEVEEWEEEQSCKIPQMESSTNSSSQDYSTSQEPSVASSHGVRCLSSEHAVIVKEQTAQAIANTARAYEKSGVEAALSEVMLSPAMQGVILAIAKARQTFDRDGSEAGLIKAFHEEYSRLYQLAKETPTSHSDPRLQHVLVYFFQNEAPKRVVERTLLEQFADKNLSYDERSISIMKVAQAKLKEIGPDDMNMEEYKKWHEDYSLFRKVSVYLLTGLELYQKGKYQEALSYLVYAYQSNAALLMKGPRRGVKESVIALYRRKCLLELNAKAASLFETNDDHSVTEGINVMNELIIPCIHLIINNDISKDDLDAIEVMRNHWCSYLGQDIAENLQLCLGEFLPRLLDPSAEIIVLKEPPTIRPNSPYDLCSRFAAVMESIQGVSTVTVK
In words: Ubiquitin-Rhodamine 110 Assay for USP28 Activity, Example A-1(b). The test is classed as biochemical. The note with it: Ubiquitin-Rhodamine 110 assay. In short, it runs like this: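 Single-point screening used 10 μM compound with 90 min room-temperature incubation; follow-up dose-responses (25 μM top, 3-fold) used 75 pM USP28 1-1077 construct, 30 min compound preincubation, 25 nM Ub-Rh110, 20 min reaction, citric acid quench. Rh110 fluorescence normalised to no-enzyme and DMSO controls; IC50 from 4-parameter logistic fit.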

`Cc1ccc2c(N)c(C(=O)N[C@H]3CCc4c(ccc(N5CCNCC5)c4F)C3)sc2n1` (single isomer, unassigned) [Example 21-6]: the “USP28 A-1(b) IC50 range” value (format Example A-1(b)) is reported as “++ (0.2-2 μM)”.
Consider `Cc1ccc2c(N)c(C(=O)N[C@@H]3CCc4cc(N5CCNCC5)c(F)cc4C3)sc2n1` (single isomer, unassigned) [Example 21-7], for which the “USP28 A-1(b) IC50 range” value (format Example A-1(b)) is given as “+++ (0.05-0.2 μM)”.
Take `Cc1ccc2c(N)c(C(=O)N[C@H]3CCc4cc(N5CCNCC5)c(F)cc4C3)sc2n1` (single isomer, unassigned) [Example 21-8]: the “USP28 A-1(b) IC50 range” value (format Example A-1(b)) was “+ (>2 μM)”.
As to `Cc1ccc2c(N)c(C(=O)N[C@H]3CCc4c(F)c(N5CCNCC5)cc(F)c4C3)sc2n1` (single isomer, unassigned) [Example 22-1], the “USP28 A-1(b) IC50 range” value (format Example A-1(b)) is reported as “++ (0.2-2 μM)”.
Same read-out and setting: as for `Cc1ccc2c(N)c(C(=O)N[C@@H]3CCc4c(F)c(N5CCNCC5)cc(F)c4C3)sc2n1` (single isomer, unassigned) [Example 22-2], the entry is “+++ (0.05-0.2 μM)”.
With `Cc1ccc2c(N)c(C(=O)N[C@H]3COc4cc(C5(F)CCNCC5)ccc4C3)sc2n1` [Example 8-1, (R)-3-Amino-N-(7-(4-fluoropiperidin-4-yl)chroman-3-yl)-6-methylthieno[2,3-b]pyridine-2-carboxamide], the “USP28 A-1(b) IC50 range” value (Example A-1(b)) is given as “++++ (0.001-0.05 μM)”.
On to `Cc1ccc2c(N)c(C(=O)N[C@H]3COc4cc(N5CCNCC5)cc(F)c4C3)sc2n1` [Example 10-1, (R)-3-amino-N-(5-fluoro-7-(piperazin-1-yl)chroman-3-yl)-6-methylthieno[2,3-b]pyridine-2-carboxamide], for which the “USP28 A-1(b) IC50 range” value (Example A-1(b)) is recorded as “+++ (0.05-0.2 μM)”.
On to `Cc1ccc2c(N)c(C(=O)N[C@@H]3COc4cc(N5CCNCC5)cc(F)c4C3)sc2n1` [Example 10-5, (S)-3-amino-N-(5-fluoro-7-(piperazin-1-yl)chroman-3-yl)-6-methylthieno[2,3-b]pyridine-2-carboxamide], for which the “USP28 A-1(b) IC50 range” value (Example A-1(b)) is on record as “+ (>2 μM)”.
As for `Cc1ccc2c(N)c(C(=O)N[C@H]3COc4cc(N5CC6CNCC(C5)O6)cc(F)c4C3)sc2n1` [Example 10-6, N-((3R)-7-(9-oxa-3,7-diazabicyclo[3.3.1]nonan-3-yl)-5-fluorochroman-3-yl)-3-amino-6-methylthieno[2,3-b]pyridine-2-carboxamide], under “Example A-1(b)”, the “USP28 A-1(b) IC50 range” value is “++++ (0.001-0.05 μM)”.
Take `Cc1cc(C)c2c(N)c(C(=O)N[C@H]3COc4cc(N5CC6CC(C5)N6)cc(F)c4C3)sc2n1` [Example 10-7, N-((3R)-7-(3,6-diazabicyclo[3.1.1]heptan-3-yl)-5-fluorochroman-3-yl)-3-amino-4,6-dimethylthieno[2,3-b]pyridine-2-carboxamide]: the “USP28 A-1(b) IC50 range” value (Example A-1(b)) is “+++ (0.05-0.2 μM)”.
Turning to `Cc1cnc2c(N)c(C(=O)N[C@H]3COc4cc(N5CC6CC(C5)N6)cc(F)c4C3)sc2n1` [Example 10-8, N-((3R)-7-(3,6-diazabicyclo[3.1.1]heptan-3-yl)-5-fluorochroman-3-yl)-7-amino-3-methylthieno[2,3-b]pyrazine-6-carboxamide], the “USP28 A-1(b) IC50 range” value (Example A-1(b)) is listed as “+++ (0.05-0.2 μM)”.
Turning to `Cc1cc(C)c2c(N)c(C(=O)N[C@H]3COc4cc(N5CCNCC5)cc(F)c4C3)sc2n1` [Example 10-9, (R)-3-amino-N-(5-fluoro-7-(piperazin-1-yl)chroman-3-yl)-4,6-dimethylthieno[2,3-b]pyridine-2-carboxamide], under “Example A-1(b)”, the “USP28 A-1(b) IC50 range” value is given as “+++ (0.05-0.2 μM)”.
For the molecule `Cc1cnc2c(N)c(C(=O)N[C@H]3COc4cc(N5CCNCC5)cc(F)c4C3)sc2n1` [Example 10-10, (R)-7-amino-N-(5-fluoro-7-(piperazin-1-yl)chroman-3-yl)-3-methylthieno[2,3-b]pyrazine-6-carboxamide], the “USP28 A-1(b) IC50 range” value (Example A-1(b)) is “+++ (0.05-0.2 μM)”.
Consider `COc1ccc2c(N)c(C(=O)N[C@H]3COc4cc(N5CCNCC5)cc(F)c4C3)sc2n1` [Example 10-11, (R)-3-amino-N-(5-fluoro-7-(piperazin-1-yl)chroman-3-yl)-6-methoxythieno[2,3-b]pyridine-2-carboxamide], for which the “USP28 A-1(b) IC50 range” value (Example A-1(b)) is “++ (0.2-2 μM)”.
Consider `Cc1cnc2c(N)c(C(=O)N[C@H]3COc4cc(N5CC6CNCC(C5)O6)cc(F)c4C3)sc2n1` [Example 10-12, N-((3R)-7-(9-oxa-3,7-diazabicyclo[3.3.1]nonan-3-yl)-5-fluorochroman-3-yl)-7-amino-3-methylthieno[2,3-b]pyrazine-6-carboxamide], for which the “USP28 A-1(b) IC50 range” value (Example A-1(b)) is reported as “++++ (0.001-0.05 μM)”.
On the same count and under the same terms, as for `Cc1cc(C)c2c(N)c(C(=O)N[C@H]3COc4cc(N5CC6CNCC(C5)O6)cc(F)c4C3)sc2n1` [Example 10-13, N-((3R)-7-(9-oxa-3,7-diazabicyclo[3.3.1]nonan-3-yl)-5-fluorochroman-3-yl)-3-amino-4,6-dimethylthieno[2,3-b]pyridine-2-carboxamide], the entry is “++++ (0.001-0.05 μM)”.
As for `Cc1cc(C(F)(F)F)c2c(N)c(C(=O)N[C@H]3COc4cc(N5CCNCC5)cc(F)c4C3)sc2n1` [Example 10-14, (R)-3-amino-N-(5-fluoro-7-(piperazin-1-yl)chroman-3-yl)-6-methyl-4-(trifluoromethyl)thieno[2,3-b]pyridine-2-carboxamide], the “USP28 A-1(b) IC50 range” value (Example A-1(b)) is recorded as “++ (0.2-2 μM)”.
Same read-out and setting: as for `Cc1ccc2c(N)c(C(=O)N[C@H]3CCc4cc(N5CC6CCC(C5)N6)ccc4C3)sc2n1` [Example 11-1, N-((2S)-6-(3,8-diazabicyclo[3.2.1]octan-3-yl)-1,2,3,4-tetrahydronaphthalen-2-yl)-3-amino-6-methylthieno[2,3-b]pyridine-2-carboxamide], the entry is “+++ (0.05-0.2 μM)”.
As to `Cc1ccc2c(N)c(C(=O)N[C@@H]3CCc4cc(N5CC6CCC(C5)N6)ccc4C3)sc2n1` [Example 11-2, N-((2R)-6-(3,8-diazabicyclo[3.2.1]octan-3-yl)-1,2,3,4-tetrahydronaphthalen-2-yl)-3-amino-6-methylthieno[2,3-b]pyridine-2-carboxamide], for the setting “Example A-1(b)”, the “USP28 A-1(b) IC50 range” value is recorded as “++ (0.2-2 μM)”.
Regarding `Cc1ccc2c(N)c(C(=O)N[C@H]3COc4cc(N5CC6CCC(C5)N6)c(F)c(F)c4C3)sc2n1` [Example 13-3, N-((3R)-7-(3,8-diazabicyclo[3.2.1]octan-3-yl)-5,6-difluorochroman-3-yl)-3-amino-6-methylthieno[2,3-b]pyridine-2-carboxamide], under “format Example A-1(b)”, the “USP28 A-1(b) IC50 range” value is reported as “+ (>2 μM)”.
The same measure, in the same setting: as for `Cc1ccc2c(N)c(C(=O)N[C@@H]3COc4cc(N5CC6CCC(C5)N6)c(F)c(F)c4C3)sc2n1` [Example 13-4, N-((3S)-7-(3,8-diazabicyclo[3.2.1]octan-3-yl)-5,6-difluorochroman-3-yl)-3-amino-6-methylthieno[2,3-b]pyridine-2-carboxamide], the entry is “++++ (0.001-0.05 μM)”; as for `Cc1ccc2c(N)c(C(=O)N[C@H]3COc4cc(N5CCNCC5)c(Cl)cc4C3)sc2n1` [Example 13-5, (R)-3-amino-N-(6-chloro-7-(piperazin-1-yl)chroman-3-yl)-6-methylthieno[2,3-b]pyridine-2-carboxamide], “+ (>2 μM)”; as for `Cc1ccc2c(N)c(C(=O)N[C@@H]3COc4c(ccc(N5CCNCC5)c4Cl)C3)sc2n1` [Example 13-8, (S)-3-amino-N-(8-chloro-7-(piperazin-1-yl)chroman-3-yl)-6-methylthieno[2,3-b]pyridine-2-carboxamide], “+ (>2 μM)”.
For `Cc1ccc2c(N)c(C(=O)N[C@H]3COc4c(ccc(N5CCNCC5)c4Cl)C3)sc2n1` [Example 13_7, (R)-3-amino-N-(8-chloro-7-(piperazin-1-yl)chroman-3-yl)-6-methylthieno[2,3-b]pyridine-2-carboxamide], where the note is “format Example A-1(b)”, the “USP28 A-1(b) IC50 range” value was “+++ (0.05-0.2 μM)”.
`Cc1ccc2c(N)c(C(=O)N[C@H]3COc4cc(N5CCNCC5)ncc4C3)sc2n1` [Example 16, (R)-3-Amino-6-methyl-N-(7-(piperazin-1-yl)-3,4-dihydro-2H-pyrano[3,2-c]pyridin-3-yl)thieno[2,3-b]pyridine-2-carboxamide]: the “USP28 A-1(b) IC50 range” value (format Example A-1(b)) is reported as “++ (0.2-2 μM)”.
